# Source: patent US9283277B2, “Methods and compositions for the treatment of obesity” (Children's Medical Center Corporation, priority 2008, dated 2016)
# Experiments:
# [1] = tested on: PERK (Thr980) phosphorylation; assay: Hypothalamic PERK (Thr980) phosphorylation in ob/ob mice; type: in vivo; details: vs vehicle
# Procedure: Nine-week old lean wt and ob/ob mice were orally treated with either PBA (1 g/kg/day) or vehicle (VEH) for 26 days and PERK (Thr980) phosphorylation is examined in the hypothalamus extracts with direct immunoblotting. (B) Ten week-old wt lean and ob/ob mice were intraperitoneally injected with leptin (0.1 mg/kg) after six-hour starvation. Hypothalami were removed 30 minutes after the injections, and pStat3^Tyr705 and total Stat3 levels were examined. (C) Nine-week old lean wt and ob/ob mice were orally treated with PBA (1 g/kg/day) for 10 days. Following the pretreatment period, leptin-deficient ob/ob mice were either administered with VEH or with different doses of leptin through the intraperitoneal route. […]
# (a) Hypothalamic PERK phosphorylation (Thr980) after 21 days of vehicle or TUDCA (150 mg/kg/day) treatment. […] Error bars are ±S.E.M., P values are determined by Student's t-test. […]
# If the postulate that reduction of ER stress in the hypothalamus increases leptin sensitivity is true, chemical chaperones other than PBA should also create the same effect and sensitize the obese mice to leptin. […] For this purpose we treated ob/ob mice either with vehicle or TUDCA (150 mg/kg/day) for a period of 21 days and analyzed the hypothalamic PERK phosphorylation. […]
# C57BL/6 wt-lean mice = assay: TUDCA and leptin co-treatment in C57BL/6 wt-lean mice; type: in vivo; details: leptin 1 mg/kg/day, TUDCA 150 mg/kg/day, 30 days
# Procedure: Following an initial acclimation period, eight week-old wt lean mice were treated with vehicle (VEH), Leptin (1 mg/kg/day) (L), TUDCA (150 mg/kg/day) (TUD) or leptin and TUDCA together for a period of 30 days. (a) Bodyweight (g), (b) % decrease in bodyweight, (c) Daily food intake (g) of the wt mice treated with VEH, LEP, TUD and TUD+LEP during the experimental period (n=4 in each group). Error bars are ±S.E.M., P values are determined by Student's t-test (*p<0.05, **p<0.01, ***p<0.001).
# If the postulate that reduction of ER stress in the hypothalamus increases leptin sensitivity is true, chemical chaperones other than PBA should also create the same effect and sensitize the obese mice to leptin. TUDCA is a hydrophilic bile acid, which has a completely different structure than PBA, but has chemical chaperone activity in common^25. First, we investigated whether TUDCA can reduce ER stress in the hypothalamus of the ob/ob mice. For this purpose we treated ob/ob mice either with vehicle or TUDCA (150 mg/kg/day) for a period of 21 days and analyzed the hypothalamic PERK phosphorylation. […] To address this question we first pretreated the ob/ob mice with TUDCA (150 mg/kg/day) for 5 days and subsequently initiated leptin (1 mg/kg) treatment. […] Body weight of the ob/ob mice decreased further with leptin and TUDCA co-treatment and reached to 34.39±1.30 g from 50.55±1.14 g (Lep vs. TUD+Lep, p<0.001). […] Furthermore, to investigate the metabolic homeostasis in more detail, we placed the mice in metabolic cages. […] Heat generation was the same between the groups (FIG. 5j). Next, we analyzed the whole body fat composition by DEXA scan. […] Finally, analysis of lean mass has shown that none of the treatments lead to a significant change in this parameter ([…]). We additionally investigated the effect of TUDCA and leptin co-treatment on C57BL/6 wt-lean mice.
Compound,"hypothalamic PERK phosphorylation (PERK activity) ([1]; TUDCA 150 mg/kg/day, 21 days)",body weight (C57BL/6 wt-lean mice),food intake (C57BL/6 wt-lean mice),"PERK (Thr980) phosphorylation in hypothalamus ([1]; PBA 1 g/kg/day orally, 26 days)"
"C[C@H](CCC(=O)NCCS(=O)(=O)O)[C@H]1CC[C@H]2[C@@H]3[C@@H](O)C[C@@H]4C[C@H](O)CC[C@]4(C)[C@H]3CC[C@]12C [TUDCA, tauroursodeoxycholic acid]",down regulated,did not observe any significant changes,did not observe any significant changes,–
"O=C(O)CCCc1ccccc1 [PBA, 4-phenyl butyric acid]",–,–,–,significantly reduced
leptin: adipocyte-derived hormone that suppresses appetite,–,did not observe any significant changes,did not observe any significant changes,–
